Experimental data: ChEMBL document CHEMBL4477272, “Toward chelerythrine optimization: Analogues designed by molecular simplification exhibit selective growth inhibition in non-small-cell lung cancer cells” (Bioorg Med Chem, 2016)
Activity calls are given as the source filed them. The calls are words filed in the database; no cut-off is given here.

Tests used:
[1] = Selectivity index, ratio of IC50 for HUVEC to IC50 for human A549 cells; type: toxicity; conditions: HUVEC versus A549 cells, read-out: Ratio IC50
NCI-H460 = assay: Cytotoxicity against human NCI-H460 cells assessed as reduction in cell viability after 24 hrs by MTT assay; type: functional, cell-based; conditions: NCI-H460, 24 h
NCI-H1299 [2] = assay: Cytotoxicity against human NCI-H1299 cells assessed as reduction in cell viability after 24 hrs by MTT assay; type: functional, cell-based; conditions: NCI-H1299, 24 h
A549 [3] = assay: Cytotoxicity against human A549 cells assessed as reduction in cell viability after 24 hrs by MTT assay; type: functional, cell-based; conditions: A549, 24 h
HUVEC = assay: Cytotoxicity against HUVEC assessed as reduction in cell viability after 24 hrs by MTT assay; type: cell-based; conditions: Homo sapiens
[4] = Selectivity index, ratio of IC50 for human LL24 cells to IC50 for human NCI-H292 cells
[5] = Selectivity index, ratio of IC50 for HUVEC to IC50 for human NCI-H292 cells
[6] = Selectivity index, ratio of IC50 for human LL24 cells to IC50 for human A549 cells
[7] = Selectivity index, ratio of IC50 for human LL24 cells to IC50 for human NCI-H460 cells
[8] = Selectivity index, ratio of IC50 for HUVEC to IC50 for human NCI-H1299 cells; type: toxicity; conditions: HUVEC versus NCI-H1299 cells, read-out: Ratio IC50
[9] = Selectivity index, ratio of IC50 for human LL24 cells to IC50 for human NCI-H1299 cells
[10] = Cytotoxicity against human LL24 cells assessed as reduction in cell viability after 24 hrs by MTT assay; type: cell-based; conditions: LL24, 24 h
[11] = Selectivity index, ratio of IC50 for HUVEC to IC50 for human NCI-H460 cells; type: toxicity; conditions: HUVEC versus NCI-H460 cells, read-out: Ratio IC50
NCI-H292 = assay: Cytotoxicity against human NCI-H292 cells assessed as reduction in cell viability after 24 hrs by MTT assay; type: functional, cell-based; conditions: NCI-H292, 24 h
NCI-H1299 [12] = assay: Cell cycle arrest in human NCI-H1299 cells assessed as accumulation at G0/G1 phase after 24 hrs by propidium iodide staining based flow cytometry; type: functional
NCI-H1299 [13] = assay: Cell cycle arrest in human NCI-H1299 cells assessed as accumulation at G0/G1 phase at 50 uM after 24 hrs by propidium iodide staining based flow cytometry (reference value: 39%); type: functional
A549 [14] = assay: Cell cycle arrest in human A549 cells assessed as accumulation at G0/G1 phase at 100 uM after 24 hrs by propidium iodide staining based flow cytometry (reference value: 33.4%); type: functional
NCI-H1299 [15] = assay: Cell cycle arrest in human NCI-H1299 cells assessed as accumulation at S phase at 50 uM after 24 hrs by propidium iodide staining based flow cytometry (reference value: 7.8%); type: functional
A549 [16] = assay: Cell cycle arrest in human A549 cells assessed as decrease in G2/M phase at 50 to 100 uM after 24 hrs by propidium iodide staining based flow cytometry; type: functional
A549 [17] = assay: Cell cycle arrest in human A549 cells assessed as accumulation at G0/G1 phase after 24 hrs by propidium iodide staining based flow cytometry; type: functional
NCI-H1299 [18] = assay: Cell cycle arrest in human NCI-H1299 cells assessed as accumulation at G0/G1 phase at 100 uM after 24 hrs by propidium iodide staining based flow cytometry (reference value: 39%); type: functional
A549 [19] = assay: Cell cycle arrest in human A549 cells assessed as accumulation at G0/G1 phase at 75 uM after 24 hrs by propidium iodide staining based flow cytometry (reference value: 33.4%); type: functional
NCI-H1299 [20] = assay: Cell cycle arrest in human NCI-H1299 cells assessed as accumulation at S phase at 75 uM after 24 hrs by propidium iodide staining based flow cytometry (reference value: 7.8%); type: functional
NCI-H1299 [21] = assay: Cell cycle arrest in human NCI-H1299 cells assessed as accumulation at G0/G1 phase at 75 uM after 24 hrs by propidium iodide staining based flow cytometry (reference value: 39%); type: functional
A549 [22] = assay: Cell cycle arrest in human A549 cells assessed as decrease in S phase at 50 to 100 uM after 24 hrs by propidium iodide staining based flow cytometry; type: functional
NCI-H1299 [23] = assay: Cell cycle arrest in human NCI-H1299 cells assessed as accumulation at S phase at 100 uM after 24 hrs by propidium iodide staining based flow cytometry (reference value: 7.8%); type: functional
A549 [24] = assay: Cell cycle arrest in human A549 cells assessed as accumulation at G0/G1 phase at 50 uM after 24 hrs by propidium iodide staining based flow cytometry (reference value: 33.4%); type: functional
NCI-H1299 [25] = assay: Cytostatic activity against human NCI-H1299 cells assessed as inhibition of colony formation after 24 hrs measured after 10 days by crystal violet staining based method; type: functional, cell-based
A549 [26] = assay: Cytostatic activity against human A549 cells assessed as inhibition of colony formation after 24 hrs measured after 10 days by crystal violet staining based method; type: functional, cell-based

SMILES: COc1ccc2c(c[n+](C)c3c4cc5c(cc4ccc23)OCO5)c1OC [CHELERYTHRINE]
- selectivity ratio [1]: 0.64
- IC50 (NCI-H460): 5.14 µM
- IC50 (NCI-H1299 [2]): 4.28 µM
- IC50 (A549 [3]): 7.73 µM
- IC50 (HUVEC): 4.93 µM
- Ratio IC50 [4]: 0.75
- Ratio IC50 [5]: 0.99
- Ratio IC50 [6]: 0.48
- Ratio IC50 [7]: 0.73
- selectivity ratio [8]: 1.15
- Ratio IC50 [9]: 0.87
- IC50 [10]: 3.73 µM
- selectivity ratio [11]: 0.96
- IC50 (NCI-H292): 4.96 µM

SMILES: COc1ccc(CN(C)Cc2ccc3c(c2)OCO3)cc1OC
- IC50 (NCI-H460): > 200 µM
- IC50 (NCI-H1299 [2]): > 200 µM
- IC50 (A549 [3]): > 200 µM
- IC50 (HUVEC): > 200 µM
- IC50 [10]: > 200 µM
- IC50 (NCI-H292): > 200 µM

SMILES: COc1ccc(CNCc2ccc3c(c2)OCO3)cc1.Cl
- selectivity ratio [1]: > 1.61
- IC50 (NCI-H460): > 200 µM
- IC50 (NCI-H1299 [2]): 73.7 µM
- IC50 (A549 [3]): 124 µM
- IC50 (HUVEC): > 200 µM
- Ratio IC50 [4]: >1.31
- Ratio IC50 [5]: >1.31
- Ratio IC50 [6]: >1.61
- selectivity ratio [8]: > 2.71
- Ratio IC50 [9]: >2.71
- IC50 [10]: > 200 µM
- IC50 (NCI-H292): 153 µM

SMILES: COc1ccc(CNCc2ccc3c(c2)OCO3)cc1OC.Cl
- selectivity ratio [1]: > 1.69
- IC50 (NCI-H460): > 200 µM
- IC50 (NCI-H1299 [2]): 92.3 µM
- IC50 (A549 [3]): 118 µM
- IC50 (HUVEC): > 200 µM
- Ratio IC50 [6]: >1.69
- selectivity ratio [8]: > 2.17
- Ratio IC50 [9]: >2.17
- IC50 [10]: > 200 µM
- IC50 (NCI-H292): > 200 µM

SMILES: COc1ccc(CNCc2ccc3c(c2)OCO3)cc1O
- IC50 (NCI-H460): > 200 µM
- IC50 (NCI-H1299 [2]): > 200 µM
- IC50 (A549 [3]): > 200 µM
- IC50 (HUVEC): > 200 µM
- IC50 [10]: > 200 µM
- IC50 (NCI-H292): > 200 µM

SMILES: COc1cc(CN(C)Cc2ccc3c(c2)OCO3)cc(OC)c1OC
- IC50 (NCI-H460): > 200 µM
- IC50 (NCI-H1299 [2]): > 200 µM
- IC50 (A549 [3]): > 200 µM
- IC50 (HUVEC): > 200 µM
- IC50 [10]: > 200 µM
- IC50 (NCI-H292): > 200 µM

SMILES: COc1cc(CNCc2ccc3c(c2)OCO3)cc(OC)c1OC.Cl
- IC50 (NCI-H460): > 200 µM
- IC50 (NCI-H1299 [2]): 107 µM
- IC50 (A549 [3]): > 200 µM
- IC50 (HUVEC): > 200 µM
- selectivity ratio [8]: > 1.88
- Ratio IC50 [9]: >1.88
- IC50 [10]: > 200 µM
- IC50 (NCI-H292): > 200 µM

SMILES: CN(Cc1ccccc1)Cc1ccc2c(c1)OCO2.Cl
- IC50 (NCI-H460): > 200 µM
- IC50 (NCI-H1299 [2]): 91.2 µM
- IC50 (A549 [3]): > 200 µM
- IC50 (HUVEC): > 200 µM
- selectivity ratio [8]: > 2.19
- Ratio IC50 [9]: >2.19
- IC50 [10]: > 200 µM
- IC50 (NCI-H292): > 200 µM

SMILES: COc1ccc(CN(C)Cc2ccc3c(c2)OCO3)cc1.Cl
- IC50 (NCI-H460): > 200 µM
- IC50 (NCI-H1299 [2]): 76.4 µM
- IC50 (A549 [3]): > 200 µM
- IC50 (HUVEC): > 200 µM
- selectivity ratio [8]: > 2.62
- Ratio IC50 [9]: >2.62
- IC50 [10]: > 200 µM
- IC50 (NCI-H292): > 200 µM

SMILES: Cl.Oc1ccc(CNCc2ccc3c(c2)OCO3)cc1O
- selectivity ratio [1]: > 1.78
- Activity (NCI-H1299 [12]): Dose-dependent effect
- Activity (NCI-H1299 [13]): 53.5%
- IC50 (NCI-H460): > 200 µM
- IC50 (NCI-H1299 [2]): > 200 µM
- Activity (A549 [14]): 54.3%
- IC50 (A549 [3]): 112 µM
- IC50 (HUVEC): > 200 µM
- Ratio IC50 [6]: >1.78
- Activity (NCI-H1299 [15]): 26.8%
- Activity (A549 [16]): Active
- IC50 [10]: > 200 µM
- Activity (A549 [17]): Dose-dependent effect
- Activity (NCI-H1299 [18]): 55.8%
- Activity (A549 [19]): 49.6%
- Activity (NCI-H1299 [20]): 20.4%
- Activity (NCI-H1299 [21]): 65%
- Activity (A549 [22]): Active
- IC50 (NCI-H292): > 200 µM
- Activity (NCI-H1299 [23]): 17.7%
- Activity (A549 [24]): 45.9%
- inhibition (NCI-H1299 [25]): Dose-dependent effect
- inhibition (A549 [26]): Dose-dependent effect

SMILES: Cl.c1ccc(CNCc2ccc3c(c2)OCO3)cc1
- IC50 (NCI-H460): > 200 µM
- IC50 (NCI-H1299 [2]): 67.2 µM
- IC50 (A549 [3]): > 200 µM
- IC50 (HUVEC): > 200 µM
- selectivity ratio [8]: > 2.98
- Ratio IC50 [9]: >2.98
- IC50 [10]: > 200 µM
- IC50 (NCI-H292): > 200 µM
